{"source": "patent US20090176835A1", "about": "“PHARMACEUTICAL COMPOSITION FOR SUPPRESSION OF THE EXPRESSION OF ATP CITRATE LYASE AND USE THEREOF” (Ajinomoto Co., Inc., priority 2002, published 2009)", "key": {"[1]": {"tested_on": "rat ACL gene (GenBank ID: J05210)", "experiment": "Liver ACL expression analyzed with DNA chips, Experiment 1 (normal Wistar rats)", "format": "in vivo", "method": "The effect of nateglinide on the expression of liver ACL was analyzed with DNA chips. In Experiment 1, methylcellulose or 50 mg/kg of nateglinide suspended in methylcellulose was orally administered to normal Wistar rats fasted overnight. One hour after the administration, the liver was taken from each rat and freezed. The total RNA was extracted with RNeasy kit (Qiagen Co. Ltd). Biotinylated cRNA probe was prepared by a standard method and then it was hybridized to rat genome U34 array (Affymetrix Co. Ltd). The amount of cRNA hybridized to rat ACL gene (GenBank ID: J05210) was analyzed with Microarray Suite 5.0 software (Affymetrix Co. Ltd)."}, "[2]": {"tested_on": "rat ACL gene (GenBank ID: J05210)", "experiment": "Liver ACL expression analyzed with DNA chips, Experiment 2 (GK rats)", "format": "in vivo", "method": "In Experiment 1, methylcellulose or 50 mg/kg of nateglinide suspended in methylcellulose was orally administered to normal Wistar rats fasted overnight. One hour after the administration, the liver was taken from each rat and freezed. The total RNA was extracted with RNeasy kit (Qiagen Co. Ltd). Biotinylated cRNA probe was prepared by a standard method and then it was hybridized to rat genome U34 array (Affymetrix Co. Ltd). The amount of cRNA hybridized to rat ACL gene (GenBank ID: J05210) was analyzed with Microarray Suite 5.0 software (Affymetrix Co. Ltd). Also in Experiment 2, 1 g/kg of glucose, 50 mg/kg of nateglinide or both of glucose and nateglinide were orally administered to Wistar rats and GK rats fasted overnight. One hour after the administration, the liver was taken from each rat and the expression of ACL level was analyzed with DNA chips in the same manner as that in Experiment 1."}, "[3]": {"experiment": "Insulin level in GK rat portal vein after nateglinide", "format": "in vivo", "settings": "after administration"}, "[4]": {"experiment": "Blood GOT and GPT as indices of liver function in patients with type 2 diabetes, 12 weeks oral nateglinide", "format": "in vivo, human", "settings": "for GOT, change (0 to 12 weeks) / GPT, change (0 to 12 weeks): decrease, p<0.05", "method": "Nateglinide was orally administered to patients with type 2 diabetes three times a day in a dose of usually […] before meals for 12 weeks. Blood GOT and GPT concentrations were determined as indices of the liver function in 0 week and 12th week. In analysis 1, the results obtained by the oral administration of nateglinide to 53 patients with type 2 diabetes each having fatty liver for 12 weeks were analyzed. In analysis 2, the results obtained by the oral administration of nateglinide to 16 cases of type-2 diabetes having liver disorders (GOT, GPT≧51 IU/L) were analyzed."}, "[5]": {"settings": "after 30 days' administration; patients without liver diseases (Drugs R&D 2(2):123 (1999)); cited from earlier work"}, "[6]": {"settings": "cited from earlier work"}, "[7]": {"settings": "analysis 1: 53 type 2 diabetes patients with fatty liver"}, "[8]": {"settings": "analysis 1: type 2 diabetes patients with fatty liver, 12 weeks"}, "[9]": {"settings": "analysis 2: 16 cases of type-2 diabetes with liver disorders"}, "[10]": {"settings": "analysis 2: type-2 diabetes with liver disorders, 12 weeks"}}, "data": [{"compound": "CC(C)[C@H]1CC[C@H](C(=O)N[C@H](Cc2ccccc2)C(=O)O)CC1", "note": "[nateglinide, (−)-N-(trans-4-isopropylcyclohexanecarbonyl)-D-phenylalanine]", "values": [{"measurement": "Expression level of liver ACL (cRNA hybridized to rat ACL gene), Analysis 1", "setting": "[1]; Wistar rats fasted overnight, 50 mg/kg oral, no glucose, liver 1 h after, methylcellulose control 96.2", "value": 144.4}, {"measurement": "Expression level of liver ACL (cRNA hybridized to rat ACL gene), Analysis 2", "setting": "[1]; Wistar rats fasted overnight, 50 mg/kg oral, no glucose, liver 1 h after, methylcellulose control 459.3", "value": 543.6}, {"measurement": "Suppression of liver ACL mRNA level", "setting": "[1]; normal Wistar rats", "value": "no significant suppression"}, {"measurement": "Expression level of liver ACL (cRNA hybridized to rat ACL gene), Analysis 1", "setting": "[2]; Experiment 2 group 5, GK rats fasted overnight, 50 mg/kg oral with 1 g/kg glucose, liver 1 h after, GK controls 139.6", "value": 66.4}, {"measurement": "Expression level of liver ACL (cRNA hybridized to rat ACL gene), Analysis 2", "setting": "[2]; Experiment 2 group 5, GK rats fasted overnight, 50 mg/kg oral with 1 g/kg glucose, liver 1 h after, GK controls 452.5 / 416.7", "value": 189.9}, {"measurement": "Elevated liver ACL expression level", "setting": "[2]; GK rats, Experiment 2, groups 3, 4 vs 5", "value": "significantly suppressed and returned to the normal level"}, {"measurement": "Insulin level in portal vein", "setting": "[3]", "value": "transient increase"}, {"measurement": "GOT value after administration", "setting": "[4]; 5 cases with fatty liver and NASH-like liver troubles (GOT, GPT≧51 IU/L, GPT>GOT), reduced from 138.6±56.0", "value": "83.6±41.5", "unit": "IU/L"}, {"measurement": "GPT value after administration", "setting": "[4]; 5 cases with fatty liver and NASH-like liver troubles (GOT, GPT≧51 IU/L, GPT>GOT), reduced from 242.6±112.8", "value": "57.8±59.2", "unit": "IU/L"}, {"measurement": "GOT, 12th week", "setting": "[4]; analysis 1: 53 type 2 diabetes patients with fatty liver, 12 weeks oral, 0 week 58.4 ± 34.4", "value": "33.8 ± 22.9", "unit": "IU/L"}, {"measurement": "GPT, 12th week", "setting": "[4]; analysis 1: 53 type 2 diabetes patients with fatty liver, 12 weeks oral, 0 week 77.2 ± 55.9", "value": "44.0 ± 29.7", "unit": "IU/L"}, {"measurement": "GOT, change (0 to 12 weeks)", "setting": "[4]; [7]", "value": "24.7 ± 12.4", "unit": "IU/L"}, {"measurement": "GPT, change (0 to 12 weeks)", "setting": "[4]; [7]", "value": "33.2 ± 31.0", "unit": "IU/L"}, {"measurement": "Level of GOT after administration compared with before", "setting": "[4]; [8]", "value": "statistically significant lowered"}, {"measurement": "Level of GPT after administration compared with before", "setting": "[4]; [8]", "value": "statistically significant lowered"}, {"measurement": "GOT, 12th week", "setting": "[4]; analysis 2: 16 cases of type-2 diabetes with liver disorders (GOT, GPT≧51 IU/L), 0 week 133.3 ± 51.3", "value": "85.4 ± 40.9", "unit": "IU/L"}, {"measurement": "GPT, 12th week", "setting": "[4]; analysis 2: 16 cases of type-2 diabetes with liver disorders (GOT, GPT≧51 IU/L), 0 week 217.3 ± 94.1", "value": "80.2 ± 53.4", "unit": "IU/L"}, {"measurement": "GOT, change (0 to 12 weeks)", "setting": "[4]; [9]", "value": "47.8 ± 37.9", "unit": "IU/L"}, {"measurement": "GPT, change (0 to 12 weeks)", "setting": "[4]; [9]", "value": "137.0 ± 43.4", "unit": "IU/L"}, {"measurement": "GOT before vs after administration", "setting": "[4]; [10]", "value": "statistically significant lowering"}, {"measurement": "GPT before vs after administration", "setting": "[4]; [10]", "value": "statistically significant lowering"}, {"measurement": "Alterations in liver function", "setting": "[5]", "value": "no significant alterations"}, {"measurement": "Effect of hepatic cirrhosis on pharmacokinetics", "setting": "[6]; J. Clin. Pharmacol. 40:634 (2000), Drugs 60(3):607 (2000)", "value": "no significant effect"}, {"measurement": "Increase of total exposure", "setting": "[6]; subjects with mild hepatic impairment (Am J Health-Syst Pharm 58, 285 (2001))", "value": 30, "unit": "%"}]}]}
